Assay results: ChEMBL document CHEMBL1212745, “Structure of the heme biosynthetic Pseudomonas aeruginosa porphobilinogen synthase in complex with the antibiotic alaremycin” (Antimicrob Agents Chemother, 2010)
pIC50, pKi: −log10 of the molar value. Values after ≈ are worked out from the molar mass of the structure shown. Active and inactive are the calls of the source. No cut-off for these calls is given here.

Key:
Escherichia coli [1] = experiment: Antimicrobial activity against Escherichia coli DH10B up to 24 hrs by microdilution method; type: functional; conditions: K-12 DH10B
Pseudomonas aeruginosa = experiment: Antimicrobial activity against Pseudomonas aeruginosa PAO1 up to 24 hrs by microdilution method; type: functional; conditions: PAO1, 24 h
Bacillus subtilis = experiment: Antimicrobial activity against Bacillus subtilis JH642 up to 24 hrs by microdilution method; type: functional; conditions: JH642, 24 h
Priestia megaterium = experiment: Antimicrobial activity against Bacillus megaterium DSM319 up to 24 hrs by microdilution method; type: functional; conditions: DSM 319, 24 h
Streptomyces coelicolor = experiment: Antimicrobial activity against Streptomyces coelicolor DMS 40233 up to 24 hrs by microdilution method; type: functional; conditions: DMS 40233, 24 h
Streptomyces avermitilis = experiment: Antimicrobial activity against Streptomyces avermitilis DSM 46492 up to 24 hrs by microdilution method; type: functional; conditions: DSM 46492, 24 h
Escherichia coli [2] = experiment: Antimicrobial activity against Escherichia coli CSA1 up to 24 hrs by microdilution method; type: functional; conditions: CSA1, 24 h
[3] = Antimicrobial activity against Streptomyces sp. A012304 up to 24 hrs by microdilution method; type: functional; conditions: Streptomyces sp. A012304, 24 h
[4] = system: Escherichia coli str. K-12 substr. DH10B; experiment: Inhibition of Escherichia coli porphobilinogen synthase assessed as enzyme activity at 5 mM relative to control; design: scale not given: the % may be the effect or the level left
[5] = system: Pseudomonas aeruginosa PAO1; experiment: Inhibition of Pseudomonas aeruginosa PAO1 porphobilinogen synthase assessed as enzyme activity at 5 mM relative to control; design: scale not given: the % may be the effect or the level left
[6] = biological target: T1, Delta-aminolevulinic acid dehydratase (Bacillus subtilis) (UniProt P30950); experiment: Inhibition of Bacillus subtilis JH642 porphobilinogen synthase assessed as enzyme activity at 5 mM relative to control; design: scale not given: the % may be the effect or the level left
T1 sequence (whole entry): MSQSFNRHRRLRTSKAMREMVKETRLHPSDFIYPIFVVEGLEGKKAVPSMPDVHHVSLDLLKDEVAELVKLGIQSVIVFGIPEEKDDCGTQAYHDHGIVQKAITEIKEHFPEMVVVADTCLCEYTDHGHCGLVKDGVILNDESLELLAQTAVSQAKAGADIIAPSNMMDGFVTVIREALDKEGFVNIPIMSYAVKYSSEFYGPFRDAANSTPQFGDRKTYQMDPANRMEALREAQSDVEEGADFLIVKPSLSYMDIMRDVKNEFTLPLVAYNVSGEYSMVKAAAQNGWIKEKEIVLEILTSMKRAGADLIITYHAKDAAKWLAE

[7] = system: Bacillus megaterium DSM 319; experiment: Inhibition of Bacillus megaterium DSM319 porphobilinogen synthase assessed as enzyme activity at 5 mM relative to control; design: scale not given: the % may be the effect or the level left
[8] = biological target: T2, Delta-aminolevulinic acid dehydratase (Streptomyces coelicolor) (UniProt P54919); experiment: Inhibition of Streptomyces coelicolor DMS 40233 porphobilinogen synthase assessed as enzyme activity at 5 mM relative to control; design: scale not given: the % may be the effect or the level left
T2 sequence (whole entry): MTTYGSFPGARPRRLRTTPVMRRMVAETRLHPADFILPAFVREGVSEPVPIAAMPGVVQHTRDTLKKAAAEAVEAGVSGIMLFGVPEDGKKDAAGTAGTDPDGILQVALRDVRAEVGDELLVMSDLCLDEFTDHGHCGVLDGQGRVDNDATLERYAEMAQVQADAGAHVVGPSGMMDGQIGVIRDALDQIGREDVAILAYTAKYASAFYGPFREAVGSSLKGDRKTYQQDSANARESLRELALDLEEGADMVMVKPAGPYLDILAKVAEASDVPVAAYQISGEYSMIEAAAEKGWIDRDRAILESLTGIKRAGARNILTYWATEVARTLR

[9] = biological target: T3, Delta-aminolevulinic acid dehydratase (Streptomyces avermitilis) (UniProt Q82E74); experiment: Inhibition of Streptomyces avermitilis DSM 46492 porphobilinogen synthase assessed as enzyme activity at 5 mM relative to control; design: scale not given: the % may be the effect or the level left
T3 sequence (whole entry): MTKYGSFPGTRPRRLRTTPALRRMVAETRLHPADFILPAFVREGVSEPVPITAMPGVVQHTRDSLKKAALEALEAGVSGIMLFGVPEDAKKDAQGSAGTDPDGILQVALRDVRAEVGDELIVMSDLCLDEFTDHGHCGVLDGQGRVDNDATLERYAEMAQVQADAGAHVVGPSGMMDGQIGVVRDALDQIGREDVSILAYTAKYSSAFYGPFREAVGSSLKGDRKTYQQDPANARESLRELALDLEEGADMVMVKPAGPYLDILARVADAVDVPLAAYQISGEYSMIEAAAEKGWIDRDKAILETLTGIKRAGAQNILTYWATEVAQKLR

Escherichia coli [10] = experiment: Inhibition of Escherichia coli CSA1 porphobilinogen synthase assessed as enzyme activity at 5 mM relative to control; design: scale not given: the % may be the effect or the level left
Streptomyces sp. A012304 [11] = experiment: Inhibition of Streptomyces sp. A012304 porphobilinogen synthase assessed as enzyme activity at 5 mM relative to control; design: scale not given: the % may be the effect or the level left
[12] = system: Escherichia coli str. K-12 substr. DH10B; experiment: Inhibition of Escherichia coli porphobilinogen synthase assessed as enzyme activity at 10 mM relative to control; design: scale not given: the % may be the effect or the level left
[13] = system: Pseudomonas aeruginosa PAO1; experiment: Inhibition of Pseudomonas aeruginosa PAO1 porphobilinogen synthase assessed as enzyme activity at 10 mM relative to control; design: scale not given: the % may be the effect or the level left
[14] = biological target: T1, Delta-aminolevulinic acid dehydratase (Bacillus subtilis); experiment: Inhibition of Bacillus subtilis JH642 porphobilinogen synthase assessed as enzyme activity at 10 mM relative to control; design: scale not given: the % may be the effect or the level left
[15] = system: Bacillus megaterium DSM 319; experiment: Inhibition of Bacillus megaterium DSM319 porphobilinogen synthase assessed as enzyme activity at 10 mM relative to control; design: scale not given: the % may be the effect or the level left
[16] = biological target: T2, Delta-aminolevulinic acid dehydratase (Streptomyces coelicolor); experiment: Inhibition of Streptomyces coelicolor DMS 40233 porphobilinogen synthase assessed as enzyme activity at 10 mM relative to control; design: scale not given: the % may be the effect or the level left
[17] = biological target: T3, Delta-aminolevulinic acid dehydratase (Streptomyces avermitilis); experiment: Inhibition of Streptomyces avermitilis DSM 46492 porphobilinogen synthase assessed as enzyme activity at 10 mM relative to control; design: scale not given: the % may be the effect or the level left
Escherichia coli [18] = experiment: Inhibition of Escherichia coli CSA1 porphobilinogen synthase assessed as enzyme activity at 10 mM relative to control; design: scale not given: the % may be the effect or the level left
Streptomyces sp. A012304 [19] = experiment: Inhibition of Streptomyces sp. A012304 porphobilinogen synthase assessed as enzyme activity at 10 mM relative to control; design: scale not given: the % may be the effect or the level left
[20] = system: Pseudomonas aeruginosa PAO1; experiment: Activity at Pseudomonas aeruginosa PAO1 porphobilinogen synthase
[21] = system: Pseudomonas aeruginosa PAO1; experiment: Ratio of Kcat to Km for Pseudomonas aeruginosa PAO1 porphobilinogen synthase
[22] = Inhibition of Pseudomonas aeruginosa PAO1 porphobilinogen synthase after 60 mins by spectrophotometry
[23] = Inhibition of Pseudomonas aeruginosa PAO1 porphobilinogen synthase by Lineweaver-Burke plot analysis
Methanosarcina barkeri [24] = experiment: Activity at Methanosarcina barkeri porphobilinogen synthase
Methanosarcina barkeri [25] = experiment: Ratio of Kcat to Km for Methanosarcina barkeri porphobilinogen synthase
[26] = Inhibition of Methanosarcina barkeri porphobilinogen synthase after 60 mins by spectrophotometry
[27] = Inhibition of Methanosarcina barkeri porphobilinogen synthase by Lineweaver-Burke plot analysis
Escherichia coli [28] = experiment: Antimicrobial activity against Escherichia coli CSA1 at =< 40 mg/ml up to 24 hrs by microdilution method in presence of heme and absence of 5-aminolaevulinic acid; type: functional, organism-based
Escherichia coli [29] = experiment: Antimicrobial activity against Escherichia coli CSA1 at =< 40 mg/ml up to 24 hrs by microdilution method in presence of 5-aminolaevulinic acid and heme; type: functional, organism-based
Escherichia coli [30] = experiment: Antimicrobial activity against Escherichia coli CSA1 at =< 40 mg/ml up to 24 hrs by microdilution method in absence of 5-aminolaevulinic acid; type: functional, organism-based
Escherichia coli [31] = experiment: Antimicrobial activity against Escherichia coli CSA1 at =< 40 mg/ml up to 24 hrs by microdilution method in presence of 5-aminolaevulinic acid; type: functional, organism-based

## C=C(NC(C)=O)C(=O)CCC(=O)O [ALAREMYCIN]
Escherichia coli [1]
  MIC: 4 mM (≈ 741 µg/mL)
Pseudomonas aeruginosa
  MIC: 12 mM (≈ 2220 µg/mL)
Bacillus subtilis
  MIC: 14 mM (≈ 2590 µg/mL)
Priestia megaterium
  MIC: 4 mM (≈ 741 µg/mL)
Streptomyces coelicolor
  MIC: 8 mM (≈ 1480 µg/mL)
Streptomyces avermitilis
  MIC: 8 mM (≈ 1480 µg/mL)
Escherichia coli [2]
  MIC: 10 mM (≈ 1850 µg/mL)
[3]
  MIC: > 20 mM
[4]
  Activity: 30%
[5]
  Activity: 92%
[6]
  Activity: 61%
[7]
  Activity: 3%
[8]
  Activity: 77%
[9]
  Activity: 68%
Escherichia coli [10]
  Activity: 36%
Streptomyces sp. A012304 [11]
  Activity: 90%
[12]
  Activity: < 1%
[13]
  Activity: 25%
[14]
  Activity: 30%
[15]
  Activity: < 1%
[16]
  Activity: 22%
[17]
  Activity: < 1%
Escherichia coli [18]
  Activity: < 1%
Streptomyces sp. A012304 [19]
  Activity: 79%
[20]
  Km: 0.32 mM
  kcat: 16.1 s⁻¹
[21]
  kcat/Km: 50300 M⁻¹ s⁻¹
[22]
  pIC50: 2.68
[23]
  pKi: 2.88
Methanosarcina barkeri [24]
  Km: 0.07 mM
  kcat: 0.012 s⁻¹
Methanosarcina barkeri [25]
  kcat/Km: 170 M⁻¹ s⁻¹
[26]
  pIC50: 2.66
[27]
  pKi: 2.82
Escherichia coli [28]
  Activity: inactive
Escherichia coli [29]
  Activity: inactive
Escherichia coli [30]
  Activity: Active
Escherichia coli [31]
  Activity: Active
